Measured values reported in the supplement of paper PMC10883282.

Assays:
Assay in all cases: relative viability vs DMSO control (72 h) (fraction); higher = more viable cells
SYO-1 = test system: SYO-1
Summary of the method: (§1)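 Sarcoma cell lines went into 384-well plates at densities chosen to reach 80–90% confluence. After 24 h, each well received 2.5 µl of serially diluted compound, with source plates running from 10 mM to 0.0002 mM, and the plates were kept 72 h at 37 °C, 5% CO2, alongside 0.1% DMSO vehicle and a 5 µM positive control. Relative viability was derived from ATPLite readings as percent growth and averaged over up to triplicate wells. The data were then rescaled so that 1 stands for full and 0 for none.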

KHOS-NP = test system: KHOS-NP
Summary of the method: as §1

SW684 = test system: SW684
Summary of the method: as §1

RD-ES = test system: RD-ES
Summary of the method: as §1

HT1080 = test system: HT1080
Summary of the method: as §1

CN(C)C/C=C/C(=O)Nc1cc2c(Nc3ccc(F)c(Cl)c3)ncnc2cc1O[C@H]1CCOC1 [Afatinib]
relative viability
Conditions	HT1080	KHOS-NP	RD-ES	SW684	SYO-1
0.00017 µM	1.1	1.09	0.992	1.18	1.03
0.00051 µM	1.12	1.08	0.986	1.18	1.01
0.00152 µM	1.1	1.07	1	1.23	0.979
0.00457 µM	1.08	1.07	0.973	1.18	0.949
0.01372 µM	1.07	1.07	1	1.14	0.957
0.04115 µM	1.07	1.07	0.969	1.13	0.946
0.1235 µM	1.11	1.06	0.914	1.1	0.903
0.3704 µM	1.11	1.08	0.829	1.04	0.838
1.111 µM	1.02	1.02	0.647	0.816	0.5276
3.333 µM	0.767	0.967	0.381	0.527	0.00877
10 µM	0.173	0.0212	0.0144	0.203	-0.00643

COc1cc(Nc2ncc3c(n2)-c2ccc(Cl)cc2C(c2c(F)cccc2OC)=NC3)ccc1C(=O)O [Alisertib]
relative viability
Conditions	HT1080	KHOS-NP	RD-ES	SW684	SYO-1
0.00017 µM	1.11	1.08	0.95	1.16	0.934
0.00051 µM	1.07	1.1	0.964	1.17	0.9195
0.00152 µM	1.08	1.09	0.952	1.18	0.903
0.00457 µM	1.06	1.08	0.909	1.15	0.863
0.01372 µM	1.07	1.09	0.881	1.1	0.826
0.04115 µM	0.994	1.07	0.747	1.09	0.783
0.1235 µM	0.974	1.06	0.428	1.01	0.618
0.3704 µM	0.876	1.05	0.256	1.01	0.459
1.111 µM	0.766	0.951	0.213	0.983	0.371
3.333 µM	0.715	0.925	0.243	0.919	0.355
10 µM	0.668	0.672	0.236	0.869	0.3041

CCS(=O)(=O)N1CC(CC#N)(n2cc(-c3ncnc4[nH]ccc34)cn2)C1 [Baricitinib]
relative viability
Conditions	HT1080	KHOS-NP	RD-ES	SW684	SYO-1
0.00017 µM	1.05	1.04	0.981	1.06	0.994
0.00051 µM	1.04	1.04	0.9701	1.04	1.01
0.00152 µM	1.05	1.052	0.947	1.12	1.01
0.00457 µM	1.04	1.06	0.9683	1.09	0.994
0.01372 µM	1.05	1.04	0.951	1.13	0.999
0.04115 µM	1.06	1.04	0.947	1.07	0.993
0.1235 µM	1.024	1.06	0.956	1.09	0.988
0.3704 µM	1.04	1.02	0.9847	1.03	0.985
1.111 µM	1.02	1.03	1.03	1.07	0.988
3.333 µM	1.07	0.985	1.04	1.05	0.952
10 µM	1.024	0.906	1.04	0.915	0.897

COc1cc(N2CCC(N3CCN(C)CC3)CC2)ccc1Nc1ncc(Cl)c(Nc2ccccc2P(C)(C)=O)n1 [Brigatinib]
relative viability
Conditions	HT1080	KHOS-NP	RD-ES	SW684	SYO-1
0.00017 µM	1.01	1.04	0.965	1.04	0.95
0.00051 µM	1.03	1.06	0.968	1.05	0.952
0.00152 µM	1.02	1.05	0.955	1.05	0.922
0.00457 µM	1.01	1.02	0.918	0.992	0.889
0.01372 µM	1	1.03	0.873	1.06	0.846
0.04115 µM	0.984	1.03	0.839	1.06	0.768
0.1235 µM	1.01	0.994	0.701	1.04	0.706
0.3704 µM	1.03	0.985	0.457	1.02	0.501
1.111 µM	0.93	0.852	0.317	0.921	0.239
3.333 µM	0.573	0.534	0.165	0.573	0.0457
10 µM	0.151	0.21	0.0867	0.2498	-0.0131
